Laboratory results published in patent US10590178B2 (priority 2014, dated 2020).

Key:
Met6-8MAP = assay: Serum antibody ELISA after immunization, plates coated with Met6-8MAP; format: in vivo; conditions: after first booster; serum diluted 1:200; alum adjuvant; OD 492 nm
Experimental: Sera antibody titers were analyzed by ELISA. For DC-based immunization, the control groups were mice given DCs alone, or given DPBS alone, for all three injections. […] Fbb-8MAP or Met6-8MAP was dissolved at 5 μg/ml in PBS (pH 7.4), and used to coat 96-well ELISA plates with duplicate, serial, 2-fold dilutions of samples of each immune serum and control serum. Each well was treated with secondary antibody (goat anti-mouse polyvalent Ig-HRP, Sigma) and substrate (o-phenylenediamine and H2O2). Optical density was measured at 492 nm.
Serum samples were collected 14 days after immunization, diluted 1:200, and tested by ELISA on plates coated with the applicable peptide-8MAP conjugate. […] However, the immune responses to the MAP conjugates were substantially weaker than those induced by peptide-pulsed DC immunization.

C. albicans = assay: Chimeric double peptide-pulsed DC vaccination versus single peptides and mixture, lethal Candida challenge in mice (survival, kidney CFUs); conditions: for kidney CFUs: compared to non-immune mice / other vaccines
Experimental: Different groups of dendritic cells (DCs) were pulsed in vitro with Fba peptide, Met6 peptide, Fba-Met6 chimeric double peptide, or a mixture of the two peptides Fba and Met6. Briefly, DCs in culture were pulsed with the peptide antigen (1 μM) on day 6. On day 7, PGE2 (10^−7 M) was added along with LPS (2 μg/ml, Sigma) for 24 h. On day 9, antigen-pulsed DCs were washed extensively and 5×10^5 cells in 200 μl DPBS were injected into mice i.p. with complete Freund's adjuvant as the priming dose. The mice were boosted i.p. at day 14 with fresh antigen-pulsed DCs and adjuvant. The mice were again boosted i.p. at day 28 with fresh antigen-pulsed DCs, but the final boost used no adjuvant.
Two weeks after the second boost, immunized and control mice were both infected i.v. with a lethal dose of live C. albicans yeast cells (5×10^5 in 0.1 ml of DPBS), prepared as described above. Passively immunized mice (see below) also received the same challenge dose. Protection was evaluated by monitoring animal survival for 50-60 days. The mice were monitored for the development of a moribund state: defined as being listless, disinterested in food or water, and nonreactive to finger probing. Once a mouse was deemed moribund, it was sacrificed and its kidneys were homogenized in DPBS and plated onto a nutrient agar to determine the number of colony forming units of yeast (CFUs).

| Sequence | antibody response compared to negative control mice (DPBS or adjuvant only) (Met6-8MAP) | kidney CFUs (C. albicans; listed as Fba-Met6 chimeric double peptide vaccine) | kidney CFUs (C. albicans; listed as Fba-Met6 conjugate) | survival rate / protection (C. albicans; up to 60 days (end of experiment)) |
| --- | --- | --- | --- | --- |
| PRIGGQRELKKITE (Met6 peptide) [14-mer peptide from C. albicans cell wall protein Met6] | 4-5 fold |  |  |  |
| YGKDVKDLFDYAQEKKPRIGGQRELKKITE [Fba-KK-Met6] |  | only one mouse in that group exhibited any detectable kidney CFUs | much lower CFUs in kidneys | 100% |
